Test results taken from patent US12509465B2, “Benzoimidazole derivatives as anticancer agents” (CENTRE LEON BERARD, priority 2016, dated 2025).

Legend:
Myd88-ERK1 = Myd88-ERK1 (Homo sapiens (Human), UniProt P27361); assay: HTRF assay of MyD88-ERK1 interaction; format: binding; conditions: 6xHis-ERK1 7.5 nM, biotin-MyD88peptide 25 nM; read-out: IC50* (μM) on Myd88-ERK1 in HRTF Assay
Description: (§1) [drawing 67] 2-(4-dimethylamino-phenyl)-1H-benzoimidazole-5-carboxylic acid (3-chloro-phenyl)-amide was synthesized from 2-(4-dimethylamino-phenyl)-1H-benzoimidazole-5-carboxylic acid and 3-chloro-phenylamine by following the procedure for example 1. ^1H NMR (400 MHz, DMSO-d6) δ 12.90 (s, 1H), 10.37 (s, 1H), 8.17 (s, 1H), 8.08-7.98 (m, 3H), 7.82-7.73 (m, 2H), 7.61 (d, J=8.3 Hz, 1H), 7.39 (t, J=8.1 Hz, 1H), 7.15 (ddd, J=8.0, 2.1, 0.9 Hz, 1H), 6.91-6.81 (m, 2H), 3.02 (s, 6H). MS m/z (M+H) 390.9. 2/Biological Activity 2-1/In Vitro Determination of Compound Activity by HRTF Assay Principle: In the experiment, recombinant Erk1 and Erk2, tagged with a polyhistidine stretch in their N-terminal part were used. To reproduce the interaction between ERK1/2 and Myd88, a peptide corresponding to amino acids 24-40 of Myd88 was used: biotin-Ahx-[…] with Ahx being aminohexanoic acid as a spacer (biotin-MyD88peptide). This peptide encompassed the interaction motif of Myd88 with the CD domain of ERK1/2. To perform the HTRF assay this peptide was N-terminally labelled with biotin. To detect the interaction between the peptide and Erk1 or Erk2 the following components were used: an antibody directed against the His-tag, labelled with the donor fluorophore (Europium cryptate); The streptavidine protein, labelled with the acceptor XL665 fluorophore directed against the biotin. All the components except Erk1, Erk2 and the peptide were purchased from Cisbio (Condolet, France).
(§2) Homogeneous Time Resolved Fluorescence (HTRF) assay combines two techniques: Fluorescence Resonance Energy Transfer (FRET) and Time Resolved (TR) measurement. In TR-FRET, a transfer of fluorescence between a donor and an acceptor molecule generates a signal that can then be measured. This energy transfer is only possible when both fluorophores are close enough to each other. Therefore, this method can be used to detect protein-protein interaction.
For MyD88-ERK1 interaction the reaction medium contained: 6xHis-ERK1 at 7.5 nM, biotin-MyD88peptide at 25 nM, anti-Histidine-Cryptate antibody at 1.3325 nM and XL665 labeled-Streptavidine at 3.125 nM.
(§3) Concentrations of compounds to be tested ranged from 0.1 μM to 100 μM. Stock solutions of compounds according to the invention were prepared at 10 mM in DMSO. […] The plate was incubated at room temperature for 2 hours and fluorescence was measured using a TECAN Infinite F500 Reader®.
(§4) Results are calculated as the variation of fluorescence (Delta F) between control and samples. Delta F was calculated using the following equation: [(Ratio sample-Ratio of the arithmetic mean of the control)/Ratio of the arithmetic mean of the control]×100 where ratio=(Acceptor fluorescence/Donor fluorescence)×10000. […]

ERK1/2 = assay: Cell-based assay, SRE luciferase reporter in HCT116 p53+/+ cells; conditions: Homo sapiens, HCT-116, 2 hours pretreatment, 10% FCS stimulation
Description: The terms “SRE promoter” refer to “Serum response elements”, which is a DNA sequence (CC(A/T)6GG) that is used upstream of reporter genes and is known to be the binding site of the SRF (Serum response factor) proteins encoded by SRF gene identified by Gene Bank number (Gene ID: 6722, NM_003131.2). To determine the activity of the compounds on ERK1/2, Human Colon Tumor (HCT116) p53+/+ cell line stably transformed to express the luciferase reporter gene under the control of the serum response element (SRE) was used. This cell line was cultured in McCoy's medium supplemented with 10% FBS, 2 mM glutamine, 1% antibiotics and 1 μM of puromycin.
HCT116 p53+/+ SRE luciferase cells were plated in 96-well flat-bottom plate at 20,000/well and incubated at 37° C. for 36 hours. The medium was discarded and replaced by 100 μl of serum free medium for 16 hours. Cells were then pretreated for 2 hours with the compounds according to the invention at various concentrations (from 0.001 μM to 80 μM). Cells were then stimulated by addition of 10% FCS and incubated at 37° C. for four additional hours and the expression of reporter gene was assessed using the One-Glo Luciferase reagent (Promega). Luminescence was quantified after 5 minutes in a TECAN infinite M200 Reader (Männedorf, Switzerland). The results are presented below at paragraph 2-5.

Myd88-ERK2 = Myd88-ERK2 (Homo sapiens (Human), UniProt P28482); assay: HTRF assay of MyD88-ERK2 interaction; format: binding; conditions: GST-ERK2 50 nM, biotin-MyD88pep 50 nM; read-out: IC50* (μM) on Myd88-ERK2 in HRTF Assay
Sequence of Myd88-ERK2 (P28482 whole entry): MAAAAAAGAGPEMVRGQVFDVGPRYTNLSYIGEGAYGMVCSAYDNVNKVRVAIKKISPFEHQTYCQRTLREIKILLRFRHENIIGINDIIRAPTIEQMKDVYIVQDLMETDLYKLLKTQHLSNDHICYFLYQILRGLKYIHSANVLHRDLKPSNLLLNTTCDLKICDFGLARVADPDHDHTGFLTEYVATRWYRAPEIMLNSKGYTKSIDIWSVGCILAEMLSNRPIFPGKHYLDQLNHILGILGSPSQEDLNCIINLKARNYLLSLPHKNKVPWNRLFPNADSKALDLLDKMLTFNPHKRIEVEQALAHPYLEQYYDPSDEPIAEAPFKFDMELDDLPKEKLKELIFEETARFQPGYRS
Description: as §1, §2
For MyD88-ERK2 interaction the reaction medium contained: GST-ERK2 at 50 nM, biotin-MyD88pep at 50 nM, anti-GST-Cryptate antibody at 0.8 nM and XL665 labeled-Streptavidine at 12.5 nM.
as §3, §4

HCT116 cells = assay: Apoptosis assay (Caspase-Glo 3/7); format: cell-based, Human; conditions: HCT116 p53+/+ cells, 16 h treatment, DMSO treated cells as control
Procedure: Cellular apoptosis was measured using the Caspase-Glo® 3/7 assay kit (Promega). To perform this study, HCT116 p53+/+ cells were seeded at a density of 7,000 cell/well in 96-half wells plate and maintained 24 h at 37° C. in McCoy's medium supplemented with 2 mM glutamine, 1% penicillin, 1% of streptomycin and 10% FBS. Cells were then treated with the compounds at various concentrations ranging from 1 μM to 100 μM depending on the compound. The DMSO concentration was normalized at 1% in each well and the cells were incubated for 16 h. Caspase 3/7 activity was monitored using caspase-Glo 3/7 kit according to the manufacturer instructions. Briefly, 50 μL of Caspase-Glo® 3/7 reagent was added in each well and the plates were gently agitated for 30 s and let at room temperature for an additional hour. Luminescence was then measured in a TECAN infinite 200 microplate reader. Results are expressed as the fold induction of caspase 3/7 activation using DMSO treated cells as control. The results are presented on FIGS. 1 to 3.

Sequence of Myd88-ERK1 (P27361 whole entry): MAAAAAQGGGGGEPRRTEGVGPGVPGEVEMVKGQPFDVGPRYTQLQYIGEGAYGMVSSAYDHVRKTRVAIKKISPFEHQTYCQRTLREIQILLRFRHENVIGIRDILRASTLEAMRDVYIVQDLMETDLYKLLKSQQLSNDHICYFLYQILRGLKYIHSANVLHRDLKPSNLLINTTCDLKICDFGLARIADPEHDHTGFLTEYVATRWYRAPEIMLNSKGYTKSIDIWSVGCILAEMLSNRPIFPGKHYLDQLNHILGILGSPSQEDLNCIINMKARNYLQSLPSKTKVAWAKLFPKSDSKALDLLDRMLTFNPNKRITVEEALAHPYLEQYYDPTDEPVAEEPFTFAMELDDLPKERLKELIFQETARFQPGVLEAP

SMILES | IC50 (Myd88-ERK1) | IC50 (ERK1/2) | IC50 (Myd88-ERK2) | induction of apoptosis (fold induction of caspase 3/7 activity) (HCT116 cells)
CN(C)c1ccc(-c2nc3cc(NC(=O)c4ccccc4)ccc3[nH]2)cc1 [Comp. ex., reference compound] | > 50 µM | > 50 µM | > 50 µM | –
CN(C)c1ccc(-c2nc3cc(C(=O)Nc4ccncc4)ccc3[nH]2)cc1 [Compound 2, 2-(4-Dimethylamino-phenyl)-1H-benzoimidazole-5-carboxylic acid pyridin-4-ylamide] | 8 µM | 0.32 µM | 11.8 µM | induction of apoptosis
COc1ccc(NC(=O)c2ccc3[nH]c(-c4ccc(N(C)C)cc4)nc3c2)cn1 [Compound 6, 2-(4-Dimethylamino-phenyl)-1H-benzoimidazole-5-carboxylic acid (6-methoxy-pyridin-3-yl)-amide] | 4.44 µM | 0.48 µM | 2.34 µM | induction of apoptosis
CCc1ccc(NC(=O)c2ccc3[nH]c(-c4ccc(N(C)C)cc4)nc3c2)cn1 [Compound 7, 2-(4-Dimethylamino-phenyl)-1H-benzoimidazole-5-carboxylic acid (6-ethylpyridin-3-yl)-amide] | 6.15 µM | 0.79 µM | 25.5 µM | induction of apoptosis
